# Data as given in patent publication US20200039973A1, “NOVEL 5-SUBSTITUTED IMIDAZOLYLMETHYL DERIVATIVES” (BAYER CROPSCIENCE AKTIENGESELLSCHAFT, priority 2016, published 2020).
# Test: Measurement of LogP values by HPLC on reversed phase columns (EEC directive 79/831 Annex V.A8)
# Type: physicochemical
# Details: Table 1; method [a]: LC-UV, acidic range, 0.1% formic acid in water and acetonitrile as eluent
# Procedure: Measurement of LogP values was performed according to EEC directive 79/831 Annex V.A8 by HPLC (High Performance Liquid Chromatography) on reversed phase columns with the following methods: • ^[a] Log P value is determined by measurement of LC-UV, in an acidic range, with 0.1% formic acid in water and acetonitrile as eluent (linear gradient from 10% acetonitrile to 95% acetonitrile). • ^[b] Log P value is determined by measurement of LC-UV, in a neutral range, with 0.001 molar ammonium acetate solution in water and acetonitrile as eluent (linear gradient from 10% acetonitrile to 95% acetonitrile). • ^[c] Log P value is determined by measurement of LC-UV, in an acidic range, with 0.1% phosphoric acid and acetonitrile as eluent (linear gradient from 10% acetonitrile to 95% acetonitrile).
# If more than one Log P value is available within the same method, all the values are given and separated by “+”.
# Calibration was done with straight-chain alkan2-ones (with 3 to 16 carbon atoms) with known Log P values (measurement of Log P values using retention times with linear interpolation between successive alkanones). Lambda-max-values were determined using UV-spectra from 200 nm to 400 nm and the peak values of the chromatographic signals.
SMILES,chromatographic logP,LogP
"N#Cc1cncn1CC(O)(Cc1ccc(F)cc1F)c1ccco1 (centres unmarked) [I-34, 3-[3-(2,4-difluorophenyl)-2-(2-furyl)-2-hydroxy-propyl]imidazole-4-carbonitrile]",2.32,–
N#Cc1cncn1CC(O)(Cc1ccc(F)cc1F)c1cc(F)ccc1F (centres unmarked) [I-27],–,2.77^[a]
N#Cc1cncn1CC(O)(Cc1ccccc1Cl)c1ccccc1 (centres unmarked) [I-17],–,2.70^[a]
N#Cc1cncn1CC(O)(Cc1ccc(F)cc1)c1ccc(F)cc1F (centres unmarked) [I-24],–,2.73^[a]
N#Cc1cncn1CC(O)(Cc1cccc(F)c1F)c1ccccc1 (centres unmarked) [I-04],–,2.40^[a]
N#Cc1cncn1CC(O)(Cc1ccccc1F)c1ccc(Cl)s1 (centres unmarked) [I-19],–,2.78^[a]
N#Cc1cncn1CC(O)(Cc1ccc(Cl)cc1F)c1cc(F)ccc1F (centres unmarked) [I-26],–,3.07^[a]
N#Cc1cncn1CC(O)(Cc1ccc(F)c(F)c1F)c1ccc(F)cc1F (centres unmarked) [I-03],–,2.96^[a]
N#Cc1cncn1CC(O)(Cc1ccc(F)c(F)c1F)c1ccccc1 (centres unmarked) [I-21],–,2.57^[a]
N#Cc1cncn1CC(O)(Cc1ccccc1Cl)c1ccc(F)cc1F (centres unmarked) [I-01],–,3.00^[a]
N#Cc1cncn1CC(O)(Cc1ccccc1F)c1ccco1 (centres unmarked) [I-30],–,2.15^[a]
N#Cc1cncn1CC(O)(Cc1ccc(F)cc1)c1ccccc1 (centres unmarked) [I-05],–,2.47^[a]
Cc1cccc(CC(O)(Cn2cncc2C#N)c2ccc(F)cc2F)c1F (centres unmarked) [I-11],–,2.98^[a]
N#Cc1cncn1CC(O)(Cc1cccc(F)c1F)C1(c2ccccc2)CC1 (centres unmarked) [I-23],–,3.25^[a]
N#Cc1cncn1CC(O)(Cc1ccccc1F)c1ccccc1 (centres unmarked) [I-08],–,2.51^[a]
N#Cc1cncn1CC(O)(Cc1cccc(F)c1F)c1ccc(F)cc1F (centres unmarked) [I-12],–,2.75^[a]

SMILES,chromatographic logP,LogP
N#Cc1cncn1CC(O)(Cc1cccc(F)c1F)c1ccco1 (centres unmarked) [I-31],–,2.25^[a]
N#Cc1cncn1CC(O)(Cc1ccc(F)cc1F)c1ccc(Cl)s1 (centres unmarked) [I-10],–,2.90^[a]
N#Cc1cncn1CC(O)(Cc1ccccc1F)c1ccc(F)cc1F (centres unmarked) [I-20],–,2.68^[a]
N#Cc1cncn1CC(O)(Cc1ccc(F)cc1F)c1ccc(F)cc1F (centres unmarked) [I-02],–,2.82^[a]
N#Cc1cncn1CC(O)(Cc1ccccc1Cl)c1cc(F)ccc1F (centres unmarked) [I-28],–,2.92^[a]
N#Cc1cncn1CC(O)(Cc1ccccc1F)C1(c2ccccc2)CC1 (centres unmarked) [I-14],–,3.18^[a]
N#Cc1cncn1CC(O)(Cc1cccc(F)c1F)c1cc(F)ccc1F (centres unmarked) [I-29],–,2.73^[a]
N#Cc1cncn1CC(O)(Cc1ccccc1F)c1cc(F)ccc1F (centres unmarked) [I-25],–,2.63^[a]
N#Cc1cncn1CC(O)(Cc1ccccc1Cl)c1ccco1 (centres unmarked) [I-32],–,2.45^[a]
N#Cc1cncn1CC(O)(Cc1ccc(F)cc1F)c1ccccc1 (centres unmarked) [I-09],–,2.60^[a]
N#Cc1cncn1CC(O)(Cc1cccc(Cl)c1F)c1ccc(F)cc1F (centres unmarked) [I-22],–,3.06^[a]
N#Cc1cncn1CC(O)(Cc1ccc(Cl)cc1F)c1ccccc1 (centres unmarked) [I-18],–,2.98^[a]
N#Cc1cncn1CC(O)(Cc1ccccc1Cl)C1(c2ccccc2)CC1 (centres unmarked) [I-15],–,3.44^[a]
N#Cc1cncn1CC(O)(Cc1cccc(Cl)c1F)c1ccco1 (centres unmarked) [I-33],–,2.57^[a]
N#Cc1cncn1CC(O)(Cc1ccc(Cl)cc1F)c1ccc(F)cc1F (centres unmarked) [I-07],–,3.17^[a]

# Same assay, conditions: Table 2 (formula XVIIa); method [a]: LC-UV, acidic range, 0.1% formic acid in water and acetonitrile as eluent
row,SMILES,LogP
1,N#Cc1cncn1CC(=O)Cc1ccccc1 [XVIIa-04],1.65^[a]
2,N#Cc1cncn1CC(=O)Cc1ccccc1Cl [XVIIa-05],1.82^[a]
3,N#Cc1cncn1CC(=O)Cc1ccc(Cl)cc1 [XVIIa-07],2.14^[a]
4,N#Cc1cncn1CC(=O)Cc1ccccc1F [XVIIa-03],1.75^[a]
5,N#Cc1cncn1CC(=O)Cc1cccc(F)c1F [XVIIa-02],1.87^[a]
6,N#Cc1cncn1CC(=O)Cc1ccccc1Br [XVIIa-06],2.02^[a]

# Same assay, conditions: reversed-phase HPLC column; Table 1; method [a]: LC-UV, acidic range, 0.1% formic acid in water and acetonitrile as eluent
row,SMILES,chromatographic logP
1,"N#Cc1cncn1CC(O)(Cc1cccc(F)c1F)c1ccc(Cl)s1 (centres unmarked) [I-16, 3-[2-(5-chloro-2-thienyl)-3-(2,3-difluorophenyl)-2-hydroxy-propyl]imidazole-4-carbonitrile]",2.86
2,"N#Cc1cncn1CC(O)(Cc1ccc(F)cc1F)C1(c2ccccc2)CC1 (centres unmarked) [I-06, 3-[3-(2,4-difluorophenyl)-2-hydroxy-2-(1-phenylcyclopropyl)propyl]imidazole-4-carbonitrile]",3.29
3,"N#Cc1cncn1CC(O)(Cc1ccccc1)c1ccc(F)cc1F (centres unmarked) [I-13, 3-[2-(2,4-difluorophenyl)-2-hydroxy-3-phenyl-propyl]imidazole-4-carbonitrile]",2.68

# Same assay, conditions: reversed-phase HPLC column; Table 2 (formula XVIIa); method [a]: LC-UV, acidic range, 0.1% formic acid in water and acetonitrile as eluent
row,SMILES,chromatographic logP
1,"N#Cc1cncn1CC(=O)C1(c2ccccc2)CC1 [XVIIa-01, 3-[2-oxo-2-(1-phenylcyclopropyl)ethyl]imidazole-4-carbonitrile]",2.17
